# What was measured:
# in vitro [1] = assay: in vitro; set-up: Viability of infected HeLa host cells, resazurin conversion, bulk resorufin fluorescence relative to DMSO; conditions: human, hela cells; bulk resorufin, mean of 2
# [2] = tested on: T1, CTL2-GFP (C. trachomatis L2/434/Bu, GFP-expressing); assay: microbe, parasite or virus in culture; set-up: Intracellular C. trachomatis growth in HeLa cells, bulk GFP fluorescence relative to DMSO; conditions: Chlamydia trachomatis, HeLa, 28.5 h; bulk GFP, mean of 2; read-out: % of control remaining
# T1 construct: L2/434/Bu, GFP-expressing
# Experimental: MICs were calculated as described above.
# [3] = tested on: T2, C. trachomatis L2/434/Bu expressing GFP (CTL2-GFP); assay: microbe, parasite or virus in culture; set-up: C. trachomatis total inclusion area by high-content imaging, normalised to DMSO; conditions: Chlamydia trachomatis, HeLa, 28.5 h; total inclusion area; read-out: % of control remaining
# T2 construct: L2/434/Bu GFP intracellular growth in HeLa cells
# Outline: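 Infected cells treated with library compounds were read for bulk GFP (chlamydial growth) and resorufin fluorescence (host viability), then fixed, Hoechst-stained and imaged. Inclusion area and number from GFP, plus nuclei counts, served as additional growth and viability proxies; MICs derived as previously described.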
# in vitro [4] = conditions: human, hela cells, % viability
SMILES,"viability at 28.5 h, 1 µM (in vitro [1]) [%]","viability at 28.5 h, 5 µM (in vitro [1]) [%]","viability at 28.5 h, 10 µM (in vitro [1]) [%]",activity at 1 µM [2] [%],activity at 5 µM [2] [%],activity at 10 µM [2] [%],activity at 1 µM [3] [%],activity at 5 µM [3] [%],activity at 10 µM [3] [%],"viability at 28.5 h, 10 µM (in vitro [4]) [%]"
Cc1ccc(NC(=O)N(Cc2ccc(-c3ccccc3)cc2)CC(C)(C)CN)c(C)c1 [CBK002428C],90.2,88.8,86.4,126,87.3,46.1,115,68.5,10.7,94.9
Cc1ccc(NC(=O)n2ccc3c(N4CCNCC4)cccc32)cc1[N+](=O)[O-] [CBK003747C],89.8,85.5,76.7,105,78.4,44.4,75.6,59.3,30.3,81.4
CC(N)C(=O)NC1CCN(c2nc3c(cc2F)c(=O)c(C(=O)O)cn3C23CC(C2)C3)C1 (stereo not shown) [CBK016632],90.2,89.5,87,15.3,3.24,7.52,11.5,1.17,0.494,80.5
O=C(NCCNCCNC(=O)C1(c2ccccc2)CCCC1)C1(c2ccccc2)CCCC1 [CBK017670],91.6,93.5,89.5,123,49.1,13.5,107,54.1,8.64,110
CC(=O)NC[C@H]1CN(c2ccc3c(c2)CCSC3)C(=O)O1 [CBK018505],95.5,101,101,142,29.2,12.6,129,28.5,9.34,99
COC(=O)N1CCc2ccc(N3C[C@H](CNC(C)=O)OC3=O)cc2CC1 [CBK022485],88.3,85.8,90.5,136,44.2,12.6,128,35.2,7.61,79.8
CCOc1cc(/C=N/Nc2nnc(C)n2N)ccc1O [CBK027460],93.3,88.7,87.4,109,57.8,26,115,81,31.7,88.9
O=C(Nc1ccccc1N1CCCNCC1)c1ccc2ccccc2c1 [CBK038927T],115,114,116,94.8,1.41,8.25,84.9,7.75,1.67,97.3
FC(F)(F)CCN1CCC2(CC1)NCCc1c2[nH]c2ccc(Cl)cc12 [CBK039331],98.2,105,108,123,46.8,30.2,56.9,20.2,7.6,91
CC(Nc1cc(N2CCN(CCO)CC2)ccc1[N+](=O)[O-])c1ccc(Br)cc1 (stereo not shown) [CBK041273],91.4,94.5,96.3,139,130,93.8,130,81.9,47.4,103
